Columns and labels:
[1] = target: T1, human active recombinant p38 (p38α) (Homo sapiens, UniProt Q16539); test: p38 Alpha Enzyme Assay (AlphaScreen, biotinylated-ATF2 substrate); type: biochemical; conditions: means of replicate determinations, pre-incubated for 4 hours at 37° C., SD of assay between 0.2 and 0.3 log units; for IC50: read-out: p38α inhibition Mean pIC50 (converted)
T1 construct: 6His

[2] = tested on: LPS-induced BAL neutrophilia; test: LPS Challenge Assay (neutrophil migration into the airway after aerosol LPS challenge); type: in vivo, Han Wistar (HW) rat; conditions: Han Wistar rat; nose-only inhalation; nebuliser concentration of <1 mg/mL; dosed 0.5 hour before the LPS challenge
Experimental: The following is a description of an assay that may be used to evaluate a compounds activity on neutrophil migration into the airway after aerosol challenge with lipopolysaccharide (LPS) in the Han Wistar (HW) rat.
LPS challenge in HW rats caused an influx of inflammatory cells into the lungs. Rats were challenged either with an aerosol of 0.9% w/v saline or 0.5 mg/mL LPS in 0.9% saline for 30 min. Rats were dosed with vehicle or test compound by nose-only inhalation administration at various time points before challenge depending upon the experimental protocol. Test compound groups could either be the same compound at different doses or single doses of different compounds. […]
The rats were euthanized with 200 mg pentobarbitone sodium at various time points after challenge depending upon the nature of the study, but typically 4 hr after LPS challenge. […] An aliquot of BAL fluid was removed and counted on the Sysmex XT2000Vet automated cell counter (Sysmex UK, Milton Keynes). […] Cells were classified as eosinophils, neutrophils or mononuclear cells (mononuclear cells included monocytes, macrophages and lymphocytes) and were expressed as a percentage of the total cell count.
Compounds were scored as active if a statistically significant (i.e. p<0.05) inhibition of the LPS-induced BAL neutrophilia response was observed.

[3] = tested on: mouse lymphoma L5178Y cells; test: In Vitro Micronucleus Assay (genotoxicity); type: cell-based; conditions: 3 hours exposure in the presence or absence of S9 mix, up to 1 mmol/L or solubility limit
From the text: In Vitro Micronucleus Assay
The following is a description of an assay that may be used to assess the genotoxicity of a compound using mouse lymphoma […] cells.
The in vitro micronucleus assay (IVM) detects chemicals that induce chromosomal damage by measuring the formation of small intra cell membrane-bound DNA fragments. At AstraZeneca, L5178Y cells are used as these are the cells of choice for follow on regulatory mammalian cell in vitro genotoxicity screening. The test system is simple to perform and produces rapid results. The IVM is suitable as a preliminary genetic toxicity-screening assay prior to compound selection.
A wide range of test chemical concentrations, up to 1 mmol/L or the chemicals solubility limit, is tested. […] Where possible, 20 hours after treatment exposure, at least three concentrations giving acceptable levels of toxicity (greater than 10% survival as measured by two day relative suspension growth) are selected for analysis of micronucleated cells. […] Where possible, a total of at least 1000 cells per culture are scored.
For any concentration, an increase in the number of micronucleated cells is considered to be significant if the increase is at least 2-fold the concurrent solvent control level, and the number of micronucleated cells is greater than 8 per thousand cells scored.

T1 sequence (Q16539 whole entry): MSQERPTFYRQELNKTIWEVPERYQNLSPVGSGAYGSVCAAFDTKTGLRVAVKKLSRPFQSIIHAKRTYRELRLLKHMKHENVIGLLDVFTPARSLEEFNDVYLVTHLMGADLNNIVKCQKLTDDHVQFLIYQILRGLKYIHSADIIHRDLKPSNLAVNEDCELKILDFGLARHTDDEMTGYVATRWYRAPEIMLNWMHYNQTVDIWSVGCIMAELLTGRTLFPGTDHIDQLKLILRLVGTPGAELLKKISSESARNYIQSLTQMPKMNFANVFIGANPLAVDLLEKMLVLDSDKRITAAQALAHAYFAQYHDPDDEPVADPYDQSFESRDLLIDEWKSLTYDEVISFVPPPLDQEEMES

| Compound | IC50 [1] [nM] | other results |
| --- | --- | --- |
| Cc1c(F)cc(C(=O)NC2CC2)cc1-c1ccc2c(=O)n(CC(C)(C)CO)cc(CN3CCNC[C@H]3C)c2c1 [Example 26, N-Cyclopropyl-3-fluoro-5-[2-(3-hydroxy-2,2-dimethylpropyl)-4-{[(2R)-2-methylpiperazin-1-yl]methyl}-1-oxo-1,2-dihydroisoquinolin-6-yl]-4-methylbenzamide] | 0.251 | activity in LPS Challenge Assay (active = statistically significant, p<0.05, inhibition of the LPS-induced BAL neutrophilia response) [2]: active; activity in micronucleus assay (significant = at least 2-fold solvent control and more than 8 micronucleated cells per thousand) [3]: inactive |
| Cc1c(F)cc(C(=O)NC2CC2)cc1-c1ccc2c(=O)n(CC(C)(C)CO)cc(S(=O)(=O)N3CCC[C@@H]3CN)c2c1 [Example 55, 3-[4-{[(2R)-2-(aminomethyl)pyrrolidin-1-yl]sulfonyl}-2-(3-hydroxy-2,2-dimethylpropyl)-1-oxo-1,2-dihydroisoquinolin-6-yl]-N-cyclopropyl-5-fluoro-4-methylbenzamide] | 2.51 | – |
| Cc1c(F)cc(C(=O)NC2CC2)cc1-c1ccc2c(=O)n(CC(C)(C)CO)cc(S(=O)(=O)NCCN(C)C)c2c1 [Example 56, N-cyclopropyl-3-[4-{[2-(dimethylamino)ethyl]sulfamoyl}-2-(3-hydroxy-2,2-dimethylpropyl)-1-oxo-1,2-dihydroisoquinolin-6-yl]-5-fluoro-4-methylbenzamide] | 0.794 | – |
| Cc1c(F)cc(C(=O)NC2CC2)cc1-c1ccc2c(=O)n(CC3(CO)CC3)cc(S(=O)(=O)N3CCCNCC3)c2c1 [Example 57] | 0.158 | – |
| Cc1c(F)cc(C(=O)NC2CC2)cc1-c1ccc2c(=O)n(CC(C)(C)CO)cc(SC3CCNCC3)c2c1 [Example 58, N-Cyclopropyl-3-fluoro-5-[2-(3-hydroxy-2,2-dimethylpropyl)-1-oxo-4-(piperidin-4-ylsulfanyl)-1,2-dihydroisoquinolin-6-yl]-4-methylbenzamide] | 0.316 | – |
| Cc1c(F)cc(C(=O)NC2CC2)cc1-c1ccc2c(=O)n(CC(C)(C)CO)cc([S+]([O-])C3CCNCC3)c2c1 (centres unmarked) [Example 59, N-Cyclopropyl-3-fluoro-5-[2-(3-hydroxy-2,2-dimethylpropyl)-1-oxo-4-(piperidin-4-ylsulfinyl)-1,2-dihydroisoquinolin-6-yl]-4-methylbenzamide] | 0.501 | – |
| Cc1c(F)cc(C(=O)NC2CC2)cc1-c1ccc2c(=O)n(CC(C)(C)CO)cc(S(=O)(=O)C3CCNCC3)c2c1 [Example 60, N-Cyclopropyl-3-fluoro-5-[2-(3-hydroxy-2,2-dimethylpropyl)-1-oxo-4-(piperidin-4-ylsulfonyl)-1,2-dihydroisoquinolin-6-yl]-4-methylbenzamide] | 0.398 | – |
| Cc1c(F)cc(C(=O)NC2CC2)cc1-c1ccc2c(=O)n(CC3CC3)cc(SC3CCNCC3)c2c1 [Example 61, N-Cyclopropyl-3-[2-(cyclopropylmethyl)-1-oxo-4-(piperidin-4-ylsulfanyl)-1,2-dihydroisoquinolin-6-yl]-5-fluoro-4-methylbenzamide] | 0.1 | – |
| Cc1c(F)cc(C(=O)NC2CC2)cc1-c1ccc2c(=O)n(CC3CC3)cc(S(=O)(=O)C3CCNCC3)c2c1 [Example 62, N-Cyclopropyl-3-[2-(cyclopropylmethyl)-1-oxo-4-(piperidin-4-ylsulfonyl)-1,2-dihydroisoquinolin-6-yl]-5-fluoro-4-methylbenzamide] | 0.2 | – |
| N-Cyclopropyl-3-fluoro-5-(2-[2-(hydroxymethyl)-2-methylbutyl]-4-{[(3S)-3-methylpiperazin-1-yl]methyl}-1-oxo-1,2-dihydroisoquinolin-6-yl)-4-methylbenzamide [Example 37] | – | p38α inhibition Mean pIC50 [1]: 9.5 |

The next lines start with results.

| IC50 [1] [nM] | Compound | other results |
| --- | --- | --- |
| 0.398 | Cc1c(F)cc(C(=O)NC2CC2)cc1-c1ccc2c(=O)n(CC3(CO)CC3)cc(SC[C@@H]3CCCNC3)c2c1 [Example 63] | – |
| 0.1 | Cc1c(F)cc(C(=O)NC2CC2)cc1-c1ccc2c(=O)n(CC3(CO)CC3)cc(SC3CCNCC3)c2c1 [Example 64, N-Cyclopropyl-3-fluoro-5-[2-{[1-(hydroxymethyl)cyclopropyl]methyl}-1-oxo-4-(piperidin-4-ylsulfanyl)-1,2-dihydroisoquinolin-6-yl]-4-methylbenzamide] | – |
| < 0.0631 | Cc1c(F)cc(C(=O)NC2CC2)cc1-c1ccc2c(=O)n(CC(C)(C)CO)cc(S[C@@H]3CCNC3)c2c1 [Example 65, N-Cyclopropyl-3-fluoro-5-{2-(3-hydroxy-2,2-dimethylpropyl)-1-oxo-4-[(3R)-pyrrolidin-3-ylsulfanyl]-1,2-dihydroisoquinolin-6-yl}-4-methylbenzamide] | – |
| 0.2 | Cc1c(F)cc(C(=O)NC2CC2)cc1-c1ccc2c(=O)n(CC(C)(CO)CO)cc(SC3CCNCC3)c2c1 [Example 66, N-Cyclopropyl-3-fluoro-5-{2-[3-hydroxy-2-(hydroxymethyl)-2-methylpropyl]-1-oxo-4-(piperidin-4-ylsulfanyl)-1,2-dihydroisoquinolin-6-yl}-4-methylbenzamide] | – |
| 0.251 | Cc1c(F)cc(C(=O)NC2CC2)cc1-c1ccc2c(=O)n(CC(C)(C)CO)cc(S[C@H]3CCN[C@H](CO)C3)c2c1 [Example 67, N-Cyclopropyl-3-fluoro-5-[2-(3-hydroxy-2,2-dimethylpropyl)-4-{[(2S,4S)-2-(hydroxymethyl)piperidin-4-yl]sulfanyl}-1-oxo-1,2-dihydroisoquinolin-6-yl]-4-methylbenzamide] | – |

— US8012980B2, “Isoquinolinone derivatives” (AstraZeneca AB, priority 2008, dated 2011)
